Results from patent US10562898B2, “Substituted benzenesulfonamides as inhibitors of alpha-4 beta-7 integrin activity” (EA PHARMA CO., LTD., priority 2016, dated 2020).
pIC50: −log10 of the molar value.

Target: T1, T cell α4β7 integrin (Homo sapiens, UniProt P13612+P26010)
T1 construct: Blood samples were obtained from healthy volunteers' blood donation; endogenous in cells; host or cells: CD4-positive T cells in whole blood of healthy human volunteers
T1 sequence (P13612 34-1032): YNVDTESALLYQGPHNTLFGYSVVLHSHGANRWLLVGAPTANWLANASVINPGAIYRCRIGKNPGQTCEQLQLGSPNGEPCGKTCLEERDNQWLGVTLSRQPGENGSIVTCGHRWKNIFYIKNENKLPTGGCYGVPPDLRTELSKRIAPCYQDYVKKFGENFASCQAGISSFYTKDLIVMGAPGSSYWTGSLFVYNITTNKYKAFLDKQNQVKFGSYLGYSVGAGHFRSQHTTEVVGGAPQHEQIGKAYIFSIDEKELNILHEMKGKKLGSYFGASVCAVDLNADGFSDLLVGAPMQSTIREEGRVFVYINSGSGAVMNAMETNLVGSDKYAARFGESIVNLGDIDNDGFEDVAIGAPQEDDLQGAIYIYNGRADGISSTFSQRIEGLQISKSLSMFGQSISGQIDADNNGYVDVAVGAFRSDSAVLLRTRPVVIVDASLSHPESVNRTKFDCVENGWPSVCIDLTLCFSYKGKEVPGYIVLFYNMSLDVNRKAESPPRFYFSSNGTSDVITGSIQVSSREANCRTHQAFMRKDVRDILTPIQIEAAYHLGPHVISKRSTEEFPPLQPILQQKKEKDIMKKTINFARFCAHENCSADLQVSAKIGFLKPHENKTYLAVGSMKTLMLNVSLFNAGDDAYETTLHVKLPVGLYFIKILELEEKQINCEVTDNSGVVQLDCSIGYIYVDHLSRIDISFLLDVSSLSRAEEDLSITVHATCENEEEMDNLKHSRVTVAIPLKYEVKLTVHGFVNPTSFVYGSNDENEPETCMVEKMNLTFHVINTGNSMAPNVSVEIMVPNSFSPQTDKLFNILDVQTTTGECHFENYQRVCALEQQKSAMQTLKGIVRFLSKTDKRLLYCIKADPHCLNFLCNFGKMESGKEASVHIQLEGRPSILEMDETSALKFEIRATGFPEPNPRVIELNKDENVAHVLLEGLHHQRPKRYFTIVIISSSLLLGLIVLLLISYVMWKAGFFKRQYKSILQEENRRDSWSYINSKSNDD
T1 sequence (P26010 20-798): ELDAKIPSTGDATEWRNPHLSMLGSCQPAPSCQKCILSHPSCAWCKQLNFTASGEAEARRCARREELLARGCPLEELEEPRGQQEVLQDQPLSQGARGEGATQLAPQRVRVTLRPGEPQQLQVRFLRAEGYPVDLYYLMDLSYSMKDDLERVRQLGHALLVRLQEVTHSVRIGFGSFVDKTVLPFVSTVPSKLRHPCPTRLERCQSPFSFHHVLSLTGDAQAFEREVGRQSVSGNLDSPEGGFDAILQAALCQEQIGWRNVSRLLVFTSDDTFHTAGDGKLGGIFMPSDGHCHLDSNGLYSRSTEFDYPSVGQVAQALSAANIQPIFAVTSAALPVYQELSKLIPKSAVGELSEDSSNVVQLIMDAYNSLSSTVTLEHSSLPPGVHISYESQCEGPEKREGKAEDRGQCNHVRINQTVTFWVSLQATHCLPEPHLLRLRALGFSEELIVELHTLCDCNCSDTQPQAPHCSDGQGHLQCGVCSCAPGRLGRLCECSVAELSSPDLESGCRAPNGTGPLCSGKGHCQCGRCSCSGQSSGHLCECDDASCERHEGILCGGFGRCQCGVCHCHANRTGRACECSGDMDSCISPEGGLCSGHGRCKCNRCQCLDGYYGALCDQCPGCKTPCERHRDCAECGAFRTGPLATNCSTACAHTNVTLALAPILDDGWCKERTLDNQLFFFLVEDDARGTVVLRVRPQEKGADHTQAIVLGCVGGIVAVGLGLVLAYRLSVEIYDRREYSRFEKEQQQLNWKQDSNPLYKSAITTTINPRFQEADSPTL
Test: Mouse MAdCAM-1/α4β7 integrin binding inhibitory activity evaluation test in whole human blood
Type: cell-based
Settings: recombinant mouse MAdCAM-1/Fc, CD4 positive cells, flow cytometry
Protocol: (4) Mouse MAdCAM-1/α4β7 Integrin Binding Inhibitory Activity Evaluation Test in Whole Human Blood
Each test substance was measured in terms of the binding inhibitory activity of T cell α4β7 integrin and MAdCAM-1 in human whole blood. Blood samples were obtained from healthy volunteers' blood donation.
A 4 mM MnCl2 solution and each of dilutions of various test substances were added to human whole blood, followed by incubation for 10 minutes. Recombinant mouse MAdCAM-1/Fc (R&D Systems, Inc.) at 10 μg/mL was added to the resultant, and each test sample taken in a total amount of 50 μL was incubated for 30 minutes. Then, 950 μL of Lyse/Fix (BD Biosciences) was added to allow hemolysis and fixation to proceed at 37° C. for 10 minutes. After centrifugation for 5 minutes, the supernatant was removed and 600 μL of a RPMI-1640 medium supplemented with 10% inactivated fetal bovine serum (hereinafter referred to as the medium) was added, followed by centrifugation for 5 minutes, removal of the supernatant, and then washing. After the test sample was washed again with the medium, Rat Anti-Mouse MAdCAM-1 antibody (Southern Biotech) at 0.625 μg/mL was added, followed by incubation for 30 minutes or more. After the test sample was washed with the medium, 50 μg/mL Goat Anti-Rat IgG (H+L) Antibody, FITC (Life Technologies) was added, followed by incubation for 30 minutes or more. After the test sample was washed with the medium, 10 μg/mL PE Rat Anti-Mouse CD4 (BD Pharmigen) was added, followed by incubation for 30 minutes or more. After the test sample was washed with the medium, a ratio of MAdCAM-1 positive cells to CD4 positive cells was measured by using flow cytometry.
From independent test results using different blood samples of two to three persons, a MAdCAM-1 binding inhibiting rate of each test substance at each of various concentrations was obtained under the setting in which, among wells containing no test substances, a well containing no ligand was scored at 100% inhibition and a well containing ligand was scored at 0% inhibition, and then a concentration IC50 which brought about 50% binding inhibition was calculated.

Row | SMILES | pIC50
1 | Cc1c(C)n(C)c(=O)n(-c2ccc(C[C@H](NC(=O)c3cc(F)c(NS(=O)(=O)c4ccc(NC(=O)C(C)(C)C)cc4)cc3F)C(=O)O)cn2)c1=O [Compound A28] | 8.92
2 | Cc1c(C)n(C)c(=O)n(-c2ccc(C[C@H](NC(=O)c3cc(F)c(NS(=O)(=O)c4ccc(NC(=O)C(C)(C)C)cn4)cc3F)C(=O)O)cn2)c1=O [Compound A32] | 8.72
3 | Cc1cn(C)c(=O)n(-c2ccc(C[C@H](NC(=O)c3cc(F)c(NS(=O)(=O)c4ccc(NC(=O)C(C)(C)C)cc4)cc3F)C(=O)O)cc2)c1=O [Compound A37] | 8.48
4 | Cc1c(C)n(C)c(=O)n(-c2ccc(C[C@H](NC(=O)c3cc(F)c(NS(=O)(=O)c4ccc(NC(=O)C(C)(C)C)cc4)cc3F)C(=O)O)cc2)c1=O [Compound A8] | 8.89
5 | Cn1c(=O)n(-c2ccc(C[C@H](NC(=O)c3cc(F)c(NS(=O)(=O)c4ccc(NC(=O)C(C)(C)C)cc4)cc3F)C(=O)O)cc2)c(=O)c2ccncc21 [Compound A1, (2S)-2-[[4-[[4-(2,2-dimethylpropanoylamino)phenyl]sulfonylamino]-2,5-difluoro-benzoyl]amino]-3-[4-(1-methyl-2,4-dioxo-pyrido[3,4-d]pyrimidin-3-yl)phenyl]propanoic acid] | 8.41
6 | Cn1c(=O)n(-c2ccc(C[C@H](NC(=O)c3cc(F)c(NS(=O)(=O)c4ccc(NC(=O)C(C)(C)C)cc4)cc3F)C(=O)O)cn2)c(=O)c2ccncc21 [Compound A26] | 8.62

Continued, values first:

Row | pIC50 | SMILES
7 | 9.00 | Cn1c2c(c(=O)n(-c3ccc(C[C@H](NC(=O)c4cc(F)c(NS(=O)(=O)c5ccc(NC(=O)C(C)(C)C)cc5)cc4F)C(=O)O)cn3)c1=O)COCC2 [Compound A44]
8 | 8.74 | Cn1ccc(=O)n(-c2ccc(C[C@H](NC(=O)c3cc(F)c(NS(=O)(=O)c4ccc(NC(=O)C(C)(C)C)cc4)cc3F)C(=O)O)cn2)c1=O [Compound A53]
9 | 8.66 | Cn1ccc(=O)n(-c2ccc(C[C@H](NC(=O)c3cc(F)c(NS(=O)(=O)c4ccc(NC(=O)C(C)(C)C)cc4)cc3F)C(=O)O)cc2)c1=O [Compound A42]
10 | 8.89 | Cc1cn(C)c(=O)n(-c2ccc(C[C@H](NC(=O)c3cc(F)c(NS(=O)(=O)c4ccc(NC(=O)C(C)(C)C)cc4)cc3F)C(=O)O)cn2)c1=O [Compound A54]
11 | 8.80 | Cc1cc(=O)n(-c2ccc(C[C@H](NC(=O)c3cc(F)c(NS(=O)(=O)c4ccc(NC(=O)C(C)(C)C)cc4)cc3F)C(=O)O)cc2)c(=O)n1C [Compound A46]
12 | 8.64 | Cn1c2c(c(=O)n(-c3ccc(C[C@H](NC(=O)c4cc(F)c(NS(=O)(=O)c5ccc(NC(=O)C(C)(C)C)cc5)cc4F)C(=O)O)cn3)c1=O)CCOC2 [Compound A40]
13 | 8.89 | Cc1cc(=O)n(-c2ccc(C[C@H](NC(=O)c3cc(F)c(NS(=O)(=O)c4ccc(NC(=O)C(C)(C)C)cc4)cc3F)C(=O)O)cn2)c(=O)n1C [Compound A45]
